Experimental findings from ChEMBL document CHEMBL5223073, “Andrographolide suppresses cisplatin-induced endothelial hyperpermeability through activation of PI3K/Akt and eNOS -derived nitric oxide” (Bioorg Med Chem, 2020) are described below.

SMILES strings stand for the structures. Calls of active or inactive are those of the source. The rule behind the calls is not given here.

The subject of experiment [1] is U-937. In words: Inhibition of cisplatin-induced ICAM1 dependent HUVEC cells adhesion to human U-937 cells at 10 to 30 uM preincubated with HUVEC cells for 4.5 hrs in presence of cisplatin and eNOS inhibitor, N(G)-nitro-L-arginine methyl ester followed by U-937 cell suspension addition and measured after 1 hr by BCECF fluorescent probe based assay. The conditions noted are these: dose 10-30 µM, time 5.5 hrs. In kind it is functional.

For experiment [2], the system named is HUVEC. In words: Induction of NO production in cisplatin-treated HUVEC cells assessed as increase in fluorescence signal at 30 uM measured after 4 to 15 mins by DAF-FM dye based analysis. The conditions noted are these: Homo sapiens, time 4-15 min. In kind it is functional, cell-based.
The subject of experiment [3] is HUVEC. Briefly: Downregulation of cisplatin-induced ICAM1 protein expression in HUVEC cells at 30 uM incubated for 1 hr by Western blot analysis. The format is functional, cell-based. The conditions noted are these: Homo sapiens.
Experiment [4] concerns the target T1, Nitric oxide synthase 3 (Homo sapiens) (UniProt P29474).
T1 sequence (whole entry): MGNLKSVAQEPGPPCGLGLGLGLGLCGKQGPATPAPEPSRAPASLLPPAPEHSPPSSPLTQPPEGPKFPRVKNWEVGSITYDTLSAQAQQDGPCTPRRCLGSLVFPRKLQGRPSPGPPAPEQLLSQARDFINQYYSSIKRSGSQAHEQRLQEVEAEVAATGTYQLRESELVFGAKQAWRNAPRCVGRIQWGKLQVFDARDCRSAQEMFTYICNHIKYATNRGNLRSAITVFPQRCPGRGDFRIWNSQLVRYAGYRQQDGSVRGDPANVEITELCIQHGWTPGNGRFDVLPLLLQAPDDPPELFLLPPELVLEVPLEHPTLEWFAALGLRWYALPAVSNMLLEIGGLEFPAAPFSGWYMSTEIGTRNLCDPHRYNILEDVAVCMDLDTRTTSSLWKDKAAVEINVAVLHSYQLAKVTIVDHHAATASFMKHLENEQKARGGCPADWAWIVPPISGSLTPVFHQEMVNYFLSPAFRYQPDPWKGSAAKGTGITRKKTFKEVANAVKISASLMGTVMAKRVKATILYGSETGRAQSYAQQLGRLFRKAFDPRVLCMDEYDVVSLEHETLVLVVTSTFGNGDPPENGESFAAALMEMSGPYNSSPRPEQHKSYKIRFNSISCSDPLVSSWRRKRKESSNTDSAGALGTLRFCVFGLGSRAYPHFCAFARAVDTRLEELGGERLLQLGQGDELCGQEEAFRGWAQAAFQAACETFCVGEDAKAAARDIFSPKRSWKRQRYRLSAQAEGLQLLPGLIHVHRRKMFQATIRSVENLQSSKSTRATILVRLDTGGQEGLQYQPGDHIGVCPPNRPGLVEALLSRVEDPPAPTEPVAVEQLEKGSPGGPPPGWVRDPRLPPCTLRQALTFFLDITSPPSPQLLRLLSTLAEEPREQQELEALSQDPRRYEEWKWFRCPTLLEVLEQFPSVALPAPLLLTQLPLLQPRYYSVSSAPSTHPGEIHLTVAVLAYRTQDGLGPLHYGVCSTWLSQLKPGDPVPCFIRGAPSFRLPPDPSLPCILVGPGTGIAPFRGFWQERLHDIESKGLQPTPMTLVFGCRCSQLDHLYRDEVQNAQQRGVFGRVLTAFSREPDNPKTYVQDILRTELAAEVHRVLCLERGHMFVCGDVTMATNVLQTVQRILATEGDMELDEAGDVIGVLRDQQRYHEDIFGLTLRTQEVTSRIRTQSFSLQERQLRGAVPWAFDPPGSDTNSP
In words: Activation of eNOS activity in cisplatin-treated HUVEC cells assessed as increase in intracellular cGMP level incubated for 15 mins by radioimmunoassay. In kind it is cell-based. The conditions noted are these: filed as activator, dose 10-30 µM.

Experiment [5] has as its system HUVEC. Briefly: Downregulation of cisplatin-induced PKCalpha translocation in HUVEC cells at 30 uM incubated for 15 mins in presence of cisplatin and PI3K inhibitor, wortmannin by Western blot analysis. The format is functional, cell-based. To be noted: Homo sapiens. On the technique in general: Immunoblotting shows a protein as a band on a membrane.
Experiment [6] concerns HUVEC. Briefly: Inhibition of cisplatin-induced PKCalpha translocation in HUVEC cells assessed as increase in PKCalpha accumulation in cytosol at 30 uM incubated for 15 mins in presence of cisplatin by Western blot analysis. In kind it is functional, subcellular. To be noted: Homo sapiens.
The target of experiment [7] is Transcription factor p65 (Homo sapiens) (UniProt Q04206). In words: Inhibition of cisplatin-induced phosphorylation of p65 subunit at Ser536 residue in HUVEC cells at 30 uM preincubated with PI3K inhibitor, wortmannin followed by compound addition and further incubated for 1 hr by Western blot analysis. In kind it is cell-based.
The subject of experiment [8] is HUVEC. In words: Upregulation of cytosolic p65 level in cisplatin-treated HUVEC cells at 30 uM preincubated with PI3K inhibitor, wortmannin followed by compound addition and further incubated for 1 hr by Western blot analysis. The format is functional, cell-based. To be noted: Homo sapiens.
Experiment [9] deals with U-937. In words: Inhibition of cisplatin-induced ICAM1 dependent HUVEC cells adhesion to human U-937 cells at 10 to 30 uM preincubated with HUVEC cells for 4.5 hrs in presence of cisplatin followed by U-937 cell suspension addition and measured after 1 hr by BCECF fluorescent probe based assay. In kind it is functional. To be noted: dose 10-30 µM, time 5.5 hrs.
Experiment [10] deals with HUVEC. In words: Improvement in cisplatin-induced endothelial monolayer integrity in HUVEC cells assessed as increase in transendothelial electric resistance at 30 uM preincubated with compound in presence of eNOS inhibitor, N(G)-nitro-L-arginine methyl ester followed by cisplatin stimulation and measured after 45 mins. In kind it is functional, cell-based. The conditions noted are these: Homo sapiens.

In experiment [11] the test system is HUVEC. Briefly: Induction of NO production in cisplatin-treated HUVEC cells assessed as increase in fluorescence signal at 30 uM preincubated with PI3K inhibitor, wortmannin for 3 hrs followed by compound addition and measured immediately by DAF-FM dye based analysis. The format is functional, cell-based. The conditions noted are these: Homo sapiens.
For experiment [12], the target named is T2, NF-kappa-B inhibitor alpha (Homo sapiens) (UniProt P25963).
T2 sequence (whole entry): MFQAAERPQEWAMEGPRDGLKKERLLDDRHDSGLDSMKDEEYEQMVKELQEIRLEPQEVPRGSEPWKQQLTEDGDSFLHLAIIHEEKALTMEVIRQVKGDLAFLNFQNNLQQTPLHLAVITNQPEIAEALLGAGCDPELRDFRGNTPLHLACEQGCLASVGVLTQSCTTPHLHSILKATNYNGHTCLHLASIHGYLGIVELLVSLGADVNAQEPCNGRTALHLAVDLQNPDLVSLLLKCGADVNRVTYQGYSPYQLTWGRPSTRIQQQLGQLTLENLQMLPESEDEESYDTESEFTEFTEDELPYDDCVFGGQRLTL
Briefly: Inhibition of cisplatin-induced phosphorylation of IkappaBalpha at Ser32/36 residue in HUVEC cells at 30 uM preincubated with PI3K inhibitor, wortmannin followed by compound addition and further incubated for 1 hr by Western blot analysis. In kind it is cell-based.

The test system of experiment [13] is HUVEC. In words: Inhibition of cisplatin-induced ICAM-1 protein expression in HUVEC cells preincubated for 30 mins followed by cisplatin addition and measured after 24 hrs by Western blot analysis. In kind it is functional, cell-based. The conditions noted are these: Homo sapiens, dose 10-30 µM, time 24.5 hrs.
Experiment [14] has as its system HUVEC. Briefly: Inhibition of cisplatin-induced TRPC1 phosphorylation in [32P] orthophosphate labeled HUVEC cells at 30 uM incubated for 15 mins in presence of cisplatin and PI3K inhibitor, wortmannin by Western blot analysis. The format is cell-based. To be noted: Homo sapiens.
The subject of experiment [15] is HUVEC. In words: Downregulation of cisplatin-induced ICAM1 protein expression in HUVEC cells at 30 uM preincubated with eNOS inhibitor, N(G)-nitro-L-arginine methyl ester followed by compound addition and further incubated for 1 hr by Western blot analysis. The format is functional, cell-based. To be noted: Homo sapiens.

Chain of Transcription factor p65 (Homo sapiens) (Q04206 whole entry): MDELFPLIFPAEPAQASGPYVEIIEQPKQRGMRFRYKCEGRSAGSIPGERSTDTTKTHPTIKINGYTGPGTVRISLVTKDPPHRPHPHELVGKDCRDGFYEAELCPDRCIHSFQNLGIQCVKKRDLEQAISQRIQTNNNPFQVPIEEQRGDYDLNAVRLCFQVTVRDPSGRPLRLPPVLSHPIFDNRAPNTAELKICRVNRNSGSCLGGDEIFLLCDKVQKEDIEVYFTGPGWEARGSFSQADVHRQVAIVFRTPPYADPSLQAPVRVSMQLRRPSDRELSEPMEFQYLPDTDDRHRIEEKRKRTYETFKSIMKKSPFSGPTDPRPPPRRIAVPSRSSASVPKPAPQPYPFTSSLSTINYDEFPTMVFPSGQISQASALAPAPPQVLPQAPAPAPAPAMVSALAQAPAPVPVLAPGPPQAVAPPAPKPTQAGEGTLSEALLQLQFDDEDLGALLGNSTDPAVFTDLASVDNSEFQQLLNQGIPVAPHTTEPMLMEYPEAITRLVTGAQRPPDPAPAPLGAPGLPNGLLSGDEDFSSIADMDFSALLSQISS

Turning to `C=C1CC[C@@H]2[C@](C)(CO)[C@H](O)CC[C@@]2(C)[C@@H]1C/C=C1/C(=O)OC[C@H]1O` [ANDROGRAPHOLIDE], the inhibition result (in the experiment on U-937 [1]; in experiment [7]; in [12]; in the experiment on HUVEC [14]) was “inactive” each time. Moreover, the result in the experiment with HUVEC [2] and in the experiment with HUVEC [3] was Active. The Activity result in experiment [4] is “Dose-Dependent Effect”. Moreover, the result in the experiment on HUVEC [5], in the experiment with HUVEC [8], in the experiment on HUVEC [10], in the experiment with HUVEC [11] and with HUVEC [15] was inactive. For the same molecule, the inhibition entry in the experiment on HUVEC [6] and in the experiment on U-937 [9] was “Active” throughout. Further, in the experiment with HUVEC [13], the inhibition result was “Dose-Dependent Effect”.
